For data set [1], the system named is MCF7X (mammary). Description: Colony-forming assay. Type of data set: cell-based, human. Particulars: for IC50: read-out: IC50 colony formation.
The test system of data set [2] is HT29X (colon). In words: Colony-forming assay. Type of data set: cell-based, human. Particulars: for IC50: read-out: IC50 colony formation.
The test system of data set [3] is LXFA526 (lung adenocarcinoma). Description: Colony-forming assay. In kind it is cell-based, human. Particulars: for IC50: read-out: IC50 colony formation.
Data set [4] concerns PAXF546 (pancreatic). In words: Colony-forming assay. In kind it is cell-based, human. As to conditions: for IC50: read-out: IC50 colony formation.
Data set [5] deals with LXFS650 (lung small-cell). In words: Colony-forming assay. In kind it is cell-based, human.
In data set [6] the test system is OVXF1353 (ovarian). Description: Colony-forming assay. In kind it is cell-based, human. Particulars: for IC50: read-out: IC50 colony formation. As for the experimental part:
The anti-tumor activity of the compounds was evaluated via a colony-forming-assay as described e.g. by D. P. Berger et al. in Annals of Oncology 1, pages 333-341 (1 990), “The clonongenic assay with human tumor xenografts, evaluation, predictive values and application for drug screening”.
The experiments were conducted using various tumor cell lines, in particular mammary carcinoma (MAXF), lung adenocarcinoma (LXFA), large-cell lung carcinoma (LXFL), small-cell lung carcinoma (LXFS), colon carcinoma (CXF), melanoma (MEXF), pancreatic carcinoma (PAXF), renal carcinoma (RXF), ovarian carcinoma (OVXF) and bladder carcinoma (BXF).

Data set [7] concerns PAXF736 (pancreatic). Description: Colony-forming assay. As to conditions: for IC50: read-out: IC50 colony formation. Type of data set: cell-based, human.
Data set [8] can be described thus: Solubility. In kind it is physicochemical.
Data set [9] relates to large-cell lung carcinoma xenograft line LXFL 529 L. Description: Tumor cell growth inhibition, sulforhodamine B (SRB) assay. In kind it is cell-based, human. Particulars: LXFL529L; three days incubation, serum containing medium. In general terms: In SRB staining, fixed cells bind dye roughly in proportion to their protein.
Data set [10] deals with mammary carcinoma line MCF-7. The data set is described as above. In kind it is cell-based, human. Particulars: MCF7; three days incubation, serum containing medium.
The test system of data set [11] is LXFL 529L cells. Description: Cellular uptake into LXFL 529L cells. As to conditions: for distribution cellular organelles / distribution cytosol: 2 hours incubation. On the procedure: The compounds of Examples 1, 6 and 8 and Comparative Examples 1 and 2 were investigated with respect to their ability to penetrate LXFL 529L cells having the passage numbers P23 to P39. The amounts of the substances taken up by the cells are given depending on the concentration of the substance within the incubation medium. The time of incubation was 2 hours in all of the experiments. Furthermore, the distribution of the substance which was taken up by the cells in the cytosol and the cellular organelles (particular) was estimated and is given in the intermediate column of Table 2. Tumor cell growth inhibition was determined by the sulfo-rhodamine B assay (SRB assay) according to Skehan et al., J. Natl. Cancer Institute 82, pages 1107-1112 (1990). Incubation was conducted for three days in serum containing medium. Tumor cell lines tested were a large-cell lung carcinoma xenograft line LXFL 529 L and the mammary carcinoma line MCF-7.

Data set [12] relates to various tumor cell lines (all). Description: Colony-forming assay, all tumor xenografts. In kind it is cell-based, human. An excerpt: The compounds according to the inventive Examples show good to excellent anti-tumor activity against various types of tumor cell lines.
On the technique in general: A xenograft is tissue or cells of one species grown in another, often human tumour cells in immunodeficient mice.

For data set [13], the system named is LXFA289 (lung adenocarcinoma). In words: Colony-forming assay. Type of data set: cell-based, human. Particulars: for IC50: read-out: IC50 colony formation.
Data set [14] concerns MEXF514 (melanoma). In words: Colony-forming assay. Particulars: for IC50: read-out: IC50 colony formation. Type of data set: cell-based, human.
The subject of data set [15] is human tumor xenograft LXFL 529. Description: In vivo testing in nude mice bearing subcutaneous tumor xenograft. On the procedure: Compound of Examples 1, 4, 6, 8, 9 and 10 were subjected to in vivo testing in nude mice bearing subcutaneously growing human tumor xenograft LXFL 529. The indigoid bisindole derivatives were applied intraperitoneally to the animals in doses and according to the schedule as described in Table 4.
The experiments were run for 21 or 28 days. Anti-tumor activity was evaluated comparing the median tumor volume relative to control, expressed as %T/C, wherein T is the test group and C the vehicle control group. In Table 4, anti-tumor activity is given according to an activity rate scale.

In data set [16] the test system is MEXF515LX (melanoma). Description: Colony-forming assay. In kind it is cell-based, human. Particulars: for IC50: read-out: IC50 colony formation.
For data set [17], the system named is BXF1301 (bladder). In words: Colony-forming assay. Particulars: for IC50: read-out: IC50 colony formation. Type of data set: cell-based, human.
For data set [18], the system named is CXF280 (colon). In words: Colony-forming assay. Particulars: for IC50: read-out: IC50 colony formation. Type of data set: cell-based, human.
Data set [19] concerns MEXF989 (melanoma). In words: Colony-forming assay. Type of data set: cell-based, human.
Data set [20] has as its system MX1 (mammary). Description: Colony-forming assay. Type of data set: cell-based, human.
The test system of data set [21] is 1220 (renal). Description: Colony-forming assay. Type of data set: cell-based, human. Particulars: renal 1220.
The mark [22] stands for this setting: read-out: IC50 colony formation.
The mark [23] stands for this setting: type printed pancreatic, xenograft printed HT29X.
[24] abbreviates: 100 mg/kg/day i.p., days 1, 4, 8, 11, 15, 18, 22.
[25] abbreviates: 300 mg/kg/day i.p., days 1, 4, 8, 11, 15, 18, 22.
Where [26] appears, read: concentration of incubation 10 μM.
The mark [27] stands for this setting: concentration of incubation 20 μM.

This note sets out measurements from patent US6664285B1, “Use of cell membrane penetrating indigoid bisindole derivatives” (priority 1999, dated 2003).

The structures appear in SMILES notation. Where two headings read alike, the source gives them in different places. A value given as a limit tells only on which side of the number the result lay.

As usually defined, the IC50 is the midpoint of a concentration-inhibition curve.

With `O=C1Nc2ccc(I)cc2/C1=C1/Nc2ccccc2C1=O` [Example 2, 5-Iodoindirubin], the IC70 colony formation was 2.5 µM in [1]; over 30 µM in data set [2] (colon HT29X); 23 µM in data set [3]; over 30 µM in [4]; 24.5 µM in [5]. The IC50 in data set [1] was under 1 µM; in data set [2] (colon HT29X), 6.3 µM; in data set [3], 8 µM; in data set [4], 18 µM; in [5] (setting [22]), 13.7 µM.

For the compound `O=C1Nc2ccc(F)cc2C1=C1Nc2ccccc2C1=O` [Example 5, 5-Fluoroindirubin], the results for the IC70 colony formation in data set [6], in [1] and in data set [7] were 6.1 µM, under 1.0 µM and 1.1 µM, respectively. In addition, the IC50 in [6], in [1] and in data set [7] was under 1 µM each time.

Take `O=C1Nc2ccc(S(=O)(=O)O)cc2C1=C1Nc2ccccc2C1=O` [Comparative Example 1, Indirubin-5-sulfonic acid, reference compound]: in data set [8], the “solubility in physiological solutions (in words)” value was “well soluble in physiological solutions”. In addition, the IC50 in data set [9] is over 100 µM; in [10] it was over 100 µM; in data set [12] (tumor xenograft type (all), read-out: IC50 colony formation), over 30 µM. Besides, the “uptake by the tumor cells (in words)” value in data set [11] (LXFL 529L cells) is recorded as “essentially not taken up by the cells”. Further, the IC70 colony formation in [12] (tumor xenograft type (all)) is over 30.0 µM. Also, the “anti-tumor activity (in words)” value in data set [12] (various types of tumor cell lines) is recorded as “does not exhibit an anti-tumor activity against any of the tumor lines”.

Turning to `O=C1/C(=C2\Nc3ccccc3C2=O)Nc2ccccc21` [Example 11, Indigo], the IC70 colony formation in data set [13] is 12.3 µM; in data set [6], 16.7 µM; in data set [2] (colon HT29X), 26.1 µM. For the same compound, the IC50 in [13] (Homo sapiens) came to 3.5 µM; in data set [6] (Homo sapiens), 3.9 µM; in data set [2] (Homo sapiens, colon HT29X), 3.3 µM.

As to `O=C1Nc2ccc([N+](=O)[O-])cc2C1=C1Nc2ccccc2C1=O` [Example 7, 5-Nitroindirubin], the IC70 colony formation is 15.1 µM in data set [1] and over 10.0 µM in data set [14]. Besides, the IC50 in data set [1] is under 1 µM; in data set [14], 4.9 µM.

On to `O=C1Nc2ccc(S(=O)(=O)O)cc2C1=C1Nc2ccccc2C1=NO` [Comparative Example 2, Indirubin-3′-oxime-5-sulfonic acid, reference compound], for which the “solubility in physiological solutions (in words)” value in [8] is listed as “well soluble in physiological solutions”. Besides, the half-inhibitory concentration (IC50) in data set [9] and in [10] was over 100 µM throughout. Moreover, the “uptake by the tumor cells (in words)” value in [11] (LXFL 529L cells) is reported as “essentially not taken up by the cells”.

Consider `O=C1Nc2ccc(Br)cc2/C1=C1/Nc2ccccc2C1=O` [Example 3, 5-Bromoindirubin], for which the IC70 colony formation was under 1.0 µM in data set [1]; 8.0 µM in data set [14]; 17.3 µM in data set [2] (colon HT29X); over 30 µM in data set [2] (setting [23]); 14.4 µM in data set [3]. Besides, the IC50 in data set [1] was under 1 µM; in data set [14] it was 3.4 µM; in [2] (colon HT29X), under 1 µM; in data set [2] (setting [23]), 13.2 µM; in data set [3] it was 2.3 µM.

On to `O=C1Nc2ccc(I)cc2/C1=C1/Nc2ccccc2/C1=N\O` [Example 9, 5-Iodoindirubine-3′-oxime], for which the IC70 colony formation in data set [13] came to 0.7 µM; in [1] it was 10.4 µM; in [16], 4.9 µM; in data set [17], 5.8 µM; in [18], 16.3 µM. The IC50 came to 0.05 µM in data set [13]; 2.4 µM in [1]; 2.6 µM in data set [16]; 4 µM in [17]; 10.7 µM in data set [18]. Moreover, the activity rating result is “− (inactive T/C > 50%)” in [15] (setting [24]) and “+ (tumor inhibition T/C > 25-50%)” in data set [15] (setting [25]).

As for `O=C1Nc2ccccc2/C1=C1/Nc2ccccc2/C1=N\O` [Example 8, Indirubin-3′-oxime], the IC70 colony formation in [13] is 3.4 µM; in [19], 2.6 µM; in [16], 5.7 µM; in data set [20], 9.2 µM; in data set [17], 16.1 µM; in data set [18] it was 12.6 µM. The IC50 in data set [13] was determined as 0.9 µM; in data set [19] (setting [22]), 1 µM; in data set [16] it was 2.8 µM; in data set [9], 3 ± 0.5 µM; in data set [20] (setting [22]), 7.7 µM; in data set [10] it was 3.3 ± 0.4 µM. In addition, the values for the IC50 in data set [17] and in data set [18] were 10.6 µM and 8 µM, respectively. Besides, the activity rating entry in data set [15] (setting [24]) and in data set [15] (setting [25]) was “− (inactive T/C > 50%)” in each case. In data set [11] (LXFL 529L cells), the “ability to penetrate the cellular membrane / uptake compared to indirubin (Example 1) (in words)” value was “slightly improved”. Moreover, the “uptake by the tumor cells (in words)” value in data set [11] (LXFL 529L cells) is “taken up by the tumor cells”. Moreover, the distribution cellular organelles in data set [11] (setting [26]) came to 57 ± 14.1%; in data set [11] (setting [27]) it was 56 ± 15.6%. Further, the results for the distribution cytosol in [11] (setting [26]) and in [11] (setting [27]) were 43 ± 14.1% and 44 ± 15.6%, respectively.

As for `O=C1Nc2ccc(Cl)cc2/C1=C1/Nc2ccccc2C1=O` [Example 4, 5-Chloroindirubin], the IC70 colony formation is 24.7 µM in data set [21]; under 1.0 µM in data set [1]; 8.0 µM in data set [7]; 26.0 µM in data set [14]; 17.3 µM in [2] (colon HT29X); over 30 µM in data set [4]. In addition, the IC50 is 11.2 µM in data set [21] (setting [22]); under 1 µM in data set [1]; 3.2 µM in data set [7]; 17.1 µM in data set [14]; under 1 µM in [2] (colon HT29X); 4.6 µM in data set [4]. Besides, the activity rating result is “++ (tumor stasis T/C ≦ 25%)” in data set [15] (100 mg/kg/day i.p., days 1-5) and “++ (tumor stasis T/C ≦ 25%)” in data set [15] (300 mg/kg/day i.p., days 1-5). For the same compound, the “tumor growth (relative tumor volume) compared to the vehicle control (in words)” value in data set [15] (LXFL 529/17, i.p., nude mice, FIG. 1) is “significantly inhibited the tumor growth”.
